A short description of assay [1]: Antagonist activity at CCR1 receptor in human THP1 cells assessed as inhibition of MIP-1alpha induced chemotaxis after 60 mins.
Assay [2] can be described thus: Antagonist activity at CCR1 receptor in human THP1 cells assessed as inhibition of MCP3-induced chemotaxis after 60 mins.
Assay [3] in a line: Antagonist activity at CCR1 receptor in human THP1 cells assessed as inhibition of HCC1-induced chemotaxis after 60 mins.
The nature of assay [4]: Antagonist activity at CCR1 receptor in human THP1 cells assessed as inhibition of LKN1-induced chemotaxis after 60 mins.
Assay [5] can be described thus: Antagonist activity at CCR1 receptor in human THP1 cells assessed as inhibition of HCC4-induced chemotaxis after 60 mins.
A short description of assay [6]: Antagonist activity at CCR1 receptor in human THP1 cells assessed as inhibition of MPIF1-induced chemotaxis after 60 mins.
Assay [7] can be described thus: Antagonist activity at CCR1 receptor in human THP1 cells assessed as inhibition of RANTES-induced chemotaxis after 60 mins.
Assay [8] can be described thus: Antagonist activity at CCR1 receptor in human THP1 cells assessed as inhibition of MIP-1alpha-induced chemotaxis after 60 mins.

In the case of `CC(C)[C@@H](NC(=O)N[C@@H]1CC[C@@H](O)C1)C(=O)N1CC[C@](O)(c2ccc(Cl)cc2)C(C)(C)C1`, in assay [1], the half-maximal inhibitory concentration (IC50) was 19 nM.

With `CC(C)[C@@H](NC(=O)CCC(C)(C)O)C(=O)N1CC[C@](O)(c2ccc(Cl)cc2)C(C)(C)C1`, in assay [1], the IC50 came out at 22 nM.

As for `CC(C)[C@@H](NC(=O)N[C@@H]1CC[C@H](O)C1)C(=O)N1CC[C@](O)(c2ccc(Cl)cc2)C(C)(C)C1`, in assay [1], the IC50 stood at 4 nM.

For `CC(C)[C@@H](NC(=O)NC1CCCC1)C(=O)N1CC[C@](O)(c2ccc(Cl)cc2)C(C)(C)C1`, in assay [1], the IC50 worked out at 3 nM.

For the compound `CC(C)[C@@H](NC(=O)NC[C@@H](C)O)C(=O)N1CC[C@](O)(c2ccc(Cl)cc2)C(C)(C)C1`, the IC50 in assay [1] was found to be 6 nM.

As to `CC(C)[C@@H](NC(=O)N[C@H]1CC[C@@H](O)C1)C(=O)N1CC[C@](O)(c2ccc(Cl)cc2)C(C)(C)C1`, the IC50 in assay [1] is 6 nM.

In the case of `CC(C)[C@@H](NC(=O)NC[C@H](C)O)C(=O)N1CC[C@](O)(c2ccc(Cl)cc2)C(C)(C)C1`, the IC50 in assay [1] was 7 nM.

Regarding `CC[C@@H](C)NC(=O)N[C@@H](C(=O)N1CC[C@](O)(c2ccc(Cl)cc2)C(C)(C)C1)C(C)C` [US8633226, 897], the IC50 in assay [1] was determined as 6 nM.

Regarding `CC(C)[C@@H](NC(=O)N[C@H]1CC[C@H](O)C1)C(=O)N1CC[C@](O)(c2ccc(Cl)cc2)C(C)(C)C1`, the IC50 in assay [1] stood at 10 nM.

Turning to `CC(C)[C@@H](NC(=O)NCC(C)(C)O)C(=O)N1CC[C@](O)(c2ccc(Cl)cc2)C(C)(C)C1`, the IC50 in assay [2] was found to be 9.3 nM; in assay [3], 7.5 nM; in assay [4], 16 nM; in assay [5], 3.2 nM; in assay [6], 14 nM; in assay [7], 3.3 nM. Moreover, the figures for the IC50 in assay [1] and in assay [8] were 6 nM and 5.5 nM, respectively.

The values above are taken from BindingDB's records for doi:10.1021/jm5003167 (Bristol-Myers Squibb, 2014).
